# Patent publication US8828988B2 (Tetraphase Pharmaceuticals, Inc., priority 2009, dated 2014)
# Where two headings read alike, the source gives them in different places.
# Assays:
# [1] = tested on: Escherichia coli EC107, ATCC 25922; test: MIC assay, EC107; format: cell-based
# [2] = tested on: Staphylococcus aureus SA101, ATCC 29213, MSSA; test: MIC assay, SA101; format: cell-based
# [3] = tested on: Acinetobacter baumannii AB110, ATCC 19606; test: MIC assay, AB110; format: cell-based; settings: ATCC19606, Table 9, read-out: MIC A.baum AB110
# [4] = tested on: E. coli S30 extract system, coupled in vitro transcription/translation, firefly luciferase readout; test: In vitro transcription/translation (TnT) assay; format: biochemical; settings: Table 8
# [5] = tested on: S. aureus ATCC 13709 (Smith); test: Mouse systemic infection model, S. aureus septicemia; settings: survival after 48 hours
# [6] = tested on: Pseudomonas aeruginosa PA111, ATCC 27853; test: MIC assay, PA111; format: cell-based; settings: ATCC27853, Table 9, read-out: MIC P. aeruginosa ATCC 27853
# [7] = tested on: Enterococcus faecalis EF159, tetracycline-resistant, tet(M); test: MIC assay, EF159; format: cell-based
smiles,measurement,setting,value
CN(C)CC(C)(C)CNc1nc(Cl)c2c(c1O)C(=O)C1=C(O)[C@]3(O)C(=O)C(C(N)=O)=C(O)[C@@H](N(C)C)[C@@H]3C[C@@H]1C2 [Compound 151],MIC,"[1]; ATCC25922, Table 8, read-out: MIC E. coli ATCC 25922",0.5 µg/mL
same,MIC,"[1]; ATCC25922, Table 9, read-out: MIC E. coli ATCC 25922",0.5 µg/mL
same,MIC,"[1]; ATCC25922, Table 12, read-out: MIC E. coli ATCC 25922",0.25 µg/mL
same,MIC,"[2]; Table 8, read-out: MIC S. aureus ATCC 29213",0.25 µg/mL
same,MIC,"[2]; Table 9, read-out: MIC S. aureus ATCC 29213",0.25 µg/mL
same,MIC,[3],2 µg/mL
same,E. coli TnT,[4],0.7 µg/mL
same,PD50 in the mouse septicemia model against S. aureus,"[5]; CD-1 mice, IP infection, intravenous treatment one hour post-challenge",0.36 mg/kg
same,PD50,"[5]; mouse septicemia, S. aureus ATCC 13709, intravenous treatment one hour post-challenge",0.36 mg/kg
same,MIC,[6],32 µg/mL
same,MIC,"[7]; Table 8, read-out: MIC E. faecalis tetM",2 µg/mL
same,MIC,"[7]; Table 9, read-out: MIC E. faecalis EF159 (tet)M",2 µg/mL
